Legend:
[1] = test system: 4T1 breast cancer cells; experiment: DNA (whole-exome) sequencing analysis of mutational bias; type: cell-based, murine; conditions: 4T1 cells, 300 µM mizoribine, 24 h
Description: B) The purine/pyrimidine ratio is increased upon glucose deprivation in murine breast cancer cells. 4T1 cells were grown in the absence of glucose for 24h (baseline) and 48h and quantified by liquid chromatography-mass spectrometry (LC-MS). Nucleotide levels were measured in µg/ml and corrected for protein concentration. Purine/pyrimidine ratio was calculated by dividing (AMP+GMP) by (UMP+CMP) relative concentrations. C) ASS1 inhibition decreases the purine/pyrimidine ration under glucose deprivation. 4T1 cells were grown in the presence or absence of glucose for 48 h and analysed as in 1B. […] Cells were grown and treated as in 5B. […] 4T1 cells were grown either with or without 300 µM mizoribine for 24 h. Nucleotide levels were measured by LC-MS. […] Each experiment was conducted with biological and technical replicates and repeated at least three times. […] Nucleotide levels were measured as described below by LC-MS. Purine/pyrimidine ratio was calculated by dividing (AMP+GMP+ATP+GTP) concentration by (UMP+CMP+TMP+UTP+CTP+TTP) concentration before and after methotrexate. […]
4T1 cells treated as outlined above were followed by lysis and DNA isolation using DNeasy blood and tissue kit (Quiagen). […] Purine to pyrimidine (R>Y) and pyrimidine to purine (Y>R) mutations on the sense strand were counted and pooled per condition to achieve sufficient values for statistical analysis. […]

[2] = test system: MC38 cells; experiment: Cell viability by crystal violet staining, MC38; type: cell-based, mouse; conditions: 300 µM mizoribine, 24 h
Description: A) Purine/pyrimidine ratio is increased upon nutrient deprivation in […] colon cancer cells. MC38 cells were grown in either regular medium or in medium without glucose for 24 h. Nucleotide levels were measured by LC-MS. Purine/pyrimidine ratio was calculated by dividing (AMP+GMP) AUC by (UMP+CMP) AUC. B) 4T1 cells with and without shASS1 were grown in glucose free medium either supplemented or not with 10 mM L-Name for 48 hrs. Nucleotide levels were measured by LC-MS. Purine/pyrimidine ratio was calculated by dividing the sum levels of (AMP+GMP) by the sum levels of (UMP+CMP+TMP). […] MC38 cells were grown either with or without 300 µM mizoribine for 24 h. Nucleotide levels were measured by LC-MS. […] 4T1 (left panel) and MC38 cells (right panel) were grown for 24 h with or without 300 µM mizoribine. Cell viability was measured by crystal violet staining. Each experiment was conducted with biological and technical replicates and repeated at least three times. All error bars represent SER. * P<0.05, ** denotes P<0.01, ***P<0.001.

[3] = test system: LMP-7 immunoproteasome; experiment: Western blot for LMP-7 immunoproteasome in 4T1 cells; type: cell-based, murine; conditions: 300 µM mizoribine, 24 hours
Excerpt: C) ASS1 mRNA expression levels and NDNO scores are associated with non-response to anti-PD1 therapy in non-small cell lung cancer (NSCLC) (7 responders and 14 nonresponders). D) Proteomic-based NDNO scores associate with lower hydrophobicity of peptide repertoire (Wilcoxon ranksum P<0.05) in a (CPTAC3) lung adenocarcinoma cohort. NDNO scores were used to determine the top tertile (red; n=36) and bottom tertile (blue; n=36); Proteomic NDNO scores denote the ratio of NNDO scores of the tumor vs the matched normal sample (Methods). Hydrophobicity scores were determined by R library Peptides using the metric from Janin et al^2, where the hydrophobicity of each sample’s peptide repertoire denotes the mean hydrophobicity of all its peptides (Methods). E) 4T1 breast cancer cells were treated with 300 µM mizoribine for 24 hours and analysed by western for LMP-7 immunoproteasome (Left panel). Quantification of the western is shown on the right panel. […] Tumor size was calliper-measured on the designated days (upper panel) and at sacrifice on day 14 (lower panel, p = 0.0476 using student’s t-test). […] Human IFNγ was measured using ELISA in wells containing cultured CD8+T-cells and PDX explants from two patients (Pat#1, LEP 19 and Pat#2, LEP 20) with metastatic NSCLC on responsive to anti-PD1. […]

SMILES: NC(=O)c1ncn([C@@H]2O[C@H](CO)[C@@H](O)[C@H]2O)c1O [Mizoribine, mizoribine]
- mutational bias by DNA sequencing analysis [1]: pyrimidine mutational bias
- cancer cell proliferation (cell viability, crystal violet) [2]: restricts ASS1-overexpressing cancer cell proliferation
- immunoproteasome LMP-7 expression [3]: higher immunoproteasome LMP-7 expression
